Columns and labels:
K562 cells = assay: Growth of K562 single cell colonies in microfluidic trap array in the presence of Imatinib; assay type: cell-based; conditions: K562 cells grown with 0.1 μM, 0.3 μM, 0.5 μM Imatinib or control; FIG. 20
Excerpt: (§1) Cells were introduced to the array and transferred to the interior chambers with a gentle trap and transfer technique that is similar to previously reported methods (Dura, et al. (2014), “Deformability-based microfluidic cell pairing and fusion”, Lab. Chip 14:2783). Specifically, we first captured cells at the entrance of the traps, and next transferred the cells into the chambers with a brief pressure burst, causing the cells to squeeze through the narrow constrictions and move into the interior chambers. The widths of the constrictions were adjusted in the range of 3-6 microns, depending on the cell type the device was designed to capture. […] Flow control was achieved by adjusting negative pressure at the outlet, which allowed cells to be pipetted directly in the inlet reservoir with minimal losses from dead volume. Additionally, this approach allowed us to wash the cells from the inlet reservoir once the array was fully populated. […]
(§2) Cells were imaged twice per day and immediately returned to the incubator after each imaging cycle, requiring around 5-10 minutes for each chip. After 7 days, the imaging dataset was analyzed by custom computer vision software written in Python using a pre-trained Mask_RCNN image segmentation model. […]

MOLM 13 cells = assay: Growth of MOLM 13 cells in microfluidic chambers in the presence of Quizartinib; assay type: cell-based; conditions: drug vs control medium, images FIG. 22A/22B
Excerpt: as §1, §2

SMILES	growth rate distribution of colonies (K562 cells)	outgrowth of clones in the presence of the drug (MOLM 13 cells)
Cc1ccc(NC(=O)c2ccc(CN3CCN(C)CC3)cc2)cc1Nc1nccc(-c2cccnc2)n1 [Imatinib]	decreased growth rate with increasing drug concentration	
CC(C)(C)c1cc(NC(=O)Nc2ccc(-c3cn4c(n3)sc3cc(OCCN5CCOCC5)ccc34)cc2)no1 [Quizartinib]		A single clone is observed to grow out in the presence of the drug

Reference: patent US20210114029A1, “DEVICES, SYSTEMS, AND METHODS FOR HIGH THROUGHPUT SINGLE CELL ANALYSIS” (Duke University, priority 2017, published 2021)
